Source: patent US8119635B2, “Diazabicyclic central nervous system active agents” (Abbott Laboratories, priority 2000, dated 2012)
pKi: −log10 of the molar value. Where a name gives a salt, the structure may show the parent alone.

Tested on: Male Sprague-Dawley rats
Assay: Formalin test (analgesia)
Type: in vivo
Conditions: Rattus norvegicus, ip, intraperitoneally 5 minutes before injection of 50 μL 5% formalin into rear paw, nocifensive behaviors, read-out: (MED) minimally effective dose, formalin test
Protocol: Another in vivo protocol utilized to determine the effectiveness of nicotinic acetylcholine receptor ligands as analgesic agents was the formalin test.
Male Sprague-Dawley rats (Charles River, Portage, Mich.) weighing 200 to 400 grams were used for all experiments. After a 20 minute period of acclimation to individual cages, 50 μL of a 5% formalin solution was injected subcutaneous into the dorsal aspect of one of the rear paws and the rats were then returned to the clear observation cages suspended above mirror panels. […] Phase 1 of the formalin test was defined as the period of time immediately after injection of formalin until 10 minutes after the formalin injection (i.e., 0-10 minutes after formalin). Phase 2 was defined as the 20 minute period from 30 to 50 minutes after formalin injection. The investigator recorded nocifensive behaviors in the injected paw of four animals during the session by observing each animal for one 15 second observation period during each 1 minute interval. Nocifensive behaviors recorded included flinching, licking or biting the injected paw. In dose-response studies, the test compound (or saline) was administered intraperitoneally 5 minutes before injection of formalin.

**Q.** How did the minimal effective dose turn out when C=Cc1cc(N2C[C@H]3CCN[C@H]3C2)cnc1Br [Example 65, (3aR,6aR)-5-(6-bromo-5-vinyl-3-pyridinyl)octahydropyrrolo[3,4-b]pyrrole dihydrochloride] was run?
**A.** > 19 µmol/kg

Molecular target: T1, neuronal nicotinic acetylcholine receptors (Rattus norvegicus, UniProt P09483+P12390)
T1 construct: crude synaptic membrane preparations from whole rat brain; from tissue; host or cells: whole rat brain, crude synaptic membranes
Assay: Binding of [3H]-cytisine to neuronal nicotinic acetylcholine receptors, crude synaptic membranes from whole rat brain
Conditions: not given
Protocol: The In Vitro protocols for determination of nicotinic acetylcholine channel receptor binding potencies of ligands were determined as follows.
Washed membranes were stored at −80° C. prior to use. Frozen aliquots were slowly thawed and resuspended in 20 volumes of buffer (containing: 120 mM NaCl, 5 mM KCl, 2 mM MgCl2, 2 mM CaCl2 and 50 mM Tris-Cl, pH 7.4 @[…]). After centrifuging at 20,000×g for 15 minutes, the pellets were resuspended in 30 volumes of buffer.
The test compounds were dissolved in water to make 10 mM stock solutions. Each solution was then diluted (1:100) with buffer (as above) and further taken through seven serial log dilutions to produce test solutions from 10^−5 to 10^−11 M.
Samples were incubated for 60 minutes at 4° C., then rapidly filtered through Whatman GF/B filters presoaked in 0.5% polyethyleneimine using 3×4 mL of ice-cold buffer. The filters are counted in 4 mL of Ecolume® (ICN). Nonspecific binding was determined in the presence of 10 μM (−)-nicotine and values were expressed as a percentage of total binding. IC50 values were determined with the RS-1 (BBN) nonlinear least squares curve-fitting program and IC50 values were converted to Ki values using the Cheng and Prusoff correction (Ki=IC50/(1+[ligand]/Kd of ligand).

T1 sequence (P09483 31-630): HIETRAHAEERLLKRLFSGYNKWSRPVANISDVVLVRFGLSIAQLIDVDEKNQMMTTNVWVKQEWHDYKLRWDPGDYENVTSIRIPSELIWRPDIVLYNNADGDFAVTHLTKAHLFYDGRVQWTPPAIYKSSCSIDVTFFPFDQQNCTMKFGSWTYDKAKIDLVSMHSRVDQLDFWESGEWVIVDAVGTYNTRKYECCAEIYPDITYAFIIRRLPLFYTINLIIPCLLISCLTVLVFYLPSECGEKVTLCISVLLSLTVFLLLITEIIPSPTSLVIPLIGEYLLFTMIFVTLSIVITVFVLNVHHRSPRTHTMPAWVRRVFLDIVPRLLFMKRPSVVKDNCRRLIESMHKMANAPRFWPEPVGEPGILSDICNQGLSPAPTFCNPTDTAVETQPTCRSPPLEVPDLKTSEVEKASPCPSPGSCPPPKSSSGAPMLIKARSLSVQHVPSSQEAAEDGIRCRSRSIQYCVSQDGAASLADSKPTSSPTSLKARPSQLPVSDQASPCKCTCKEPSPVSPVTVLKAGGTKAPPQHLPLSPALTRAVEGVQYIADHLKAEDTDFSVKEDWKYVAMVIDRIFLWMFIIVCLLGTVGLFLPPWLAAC
T1 sequence (P12390 25-500): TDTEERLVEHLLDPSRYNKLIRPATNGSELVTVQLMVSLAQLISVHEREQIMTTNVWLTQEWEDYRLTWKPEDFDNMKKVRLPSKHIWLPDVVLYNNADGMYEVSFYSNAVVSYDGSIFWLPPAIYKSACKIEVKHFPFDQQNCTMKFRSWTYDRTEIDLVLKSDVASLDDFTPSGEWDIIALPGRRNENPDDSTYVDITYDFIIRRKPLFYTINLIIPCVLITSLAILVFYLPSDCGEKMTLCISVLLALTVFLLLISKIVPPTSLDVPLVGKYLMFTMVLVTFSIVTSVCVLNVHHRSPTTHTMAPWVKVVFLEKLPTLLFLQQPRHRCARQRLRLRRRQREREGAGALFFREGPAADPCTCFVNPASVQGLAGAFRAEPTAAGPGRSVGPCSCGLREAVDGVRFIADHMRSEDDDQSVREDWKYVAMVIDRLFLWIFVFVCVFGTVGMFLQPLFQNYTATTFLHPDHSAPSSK

**Q.** N#Cc1cncc(N2C[C@H]3CN[C@H]3C2)c1 [Example 79, 5-[(1R,5R)-3,6-diazabicyclo[3.2.0]hept-3-yl]nicotinonitrile fumarate] was tested. Which pKi did it give?
**A.** 9.92

**Q.** With c1cncc(N2CC[C@H]3CNC[C@H]32)c1 [Example 78, (3aS,6aS)-1-(3-pyridinyl)octahydropyrrolo[3,4-b]pyrrole dihydrochloride] as the compound, how does the pKi read?
**A.** 7.60

**Q.** How did the pKi turn out when [N-]=[N+]=Nc1cncc(N2C[C@H]3CNC[C@H]32)c1 [Example 96, (1R,5S)-6-(5-azido-3-pyridinyl)-3,6-diazabicyclo[3.2.0]heptane fumarate] was run?
**A.** 8.72

**Q.** With C=Cc1cc(N2C[C@H]3CCN[C@H]3C2)cnc1Br [Example 65, (3aR,6aR)-5-(6-bromo-5-vinyl-3-pyridinyl)octahydropyrrolo[3,4-b]pyrrole dihydrochloride] as the compound, how does the pKi read?
**A.** 8.51

**Q.** Clc1ccc(N2C[C@H]3CNC[C@H]32)cn1 [Example 57, (1R,5S)-6-(6-chloro-3-pyridinyl)-3,6-diazabicyclo[3.2.0]heptane fumarate] was tested. Which pKi did it give?
**A.** 8.92

**Q.** How did the pKi turn out when Clc1cc(N2C[C@@H]3CCN[C@@H]3C2)cnc1Cl [Example 25, (3aS,6aS)-5-(5,6-dichloro-3-pyridinyl)octahydropyrrolo[3,4-b]pyrrole hydrochloride] was run?
**A.** 8.85

**Q.** How did the pKi turn out when Clc1cc(N2C[C@H]3CCN[C@H]3C2)cnc1Br [Example 59, (3aR,6aR)-5-(6-bromo-5-chloro-3-pyridinyl)octahydropyrrolo[3,4-b]pyrrole fumarate] was run?
**A.** 9.46

**Q.** How did the pKi turn out when Clc1ccc(N2CC[C@@H]3CNC[C@@H]32)cn1 (relative stereo) [Example 16, cis-1-(6-chloro-3-pyridinyl)octahydropyrrolo[3,4-b]pyrrole hydrochloride] was run?
**A.** 7.64

**Q.** How did the pKi turn out when Clc1ccc(N2C[C@H]3CNC[C@H]32)cn1 (relative stereo) [Example 46, (cis)-6-(6-chloro-3-pyridinyl)-3,6-diazabicyclo[3.2.0]heptane fumarate] was run?
**A.** 9.14

**Q.** How did the pKi turn out when N#CCc1cc(N2C[C@H]3CCN[C@H]3C2)cnc1Br [Example 66, [5-((3aR,6aR)-hexahydropyrrolo[3,4-b]pyrrol-5(1H)-yl)-2-bromo-3-pyridinyl]acetonitrile fumarate] was run?
**A.** 9.59

**Q.** Cc1cc(N2C[C@@H]3CCNC[C@@H]32)cnc1Cl [Example 90, (1R,6S)-8-(6-chloro-5-methyl-3-pyridinyl)-3,8-diazabicyclo[4.2.0]octane fumarate] was tested. Which pKi did it give?
**A.** 10.40

**Q.** With Clc1ccc(N2CC[C@H]3CN[C@H]3C2)cn1 [Example 49, (1R,6S)-3-(6-chloro-3-pyridinyl)-3,8-diazabicyclo[4.2.0]octane fumarate] as the compound, how does the pKi read?
**A.** 10.70

**Q.** How did the pKi turn out when Clc1ccc(N2CC[C@H]3CNC[C@H]32)cn1 [Example 77, (3aS,6aS)-1-(6-chloro-3-pyridinyl)octahydropyrrolo[3,4-b]pyrrole fumarate] was run?
**A.** 7.72

**Q.** With Clc1ccc(N2C[C@H]3CN[C@H]3C2)cn1 [Example 80, (1R,5R)-3-(6-chloro-3-pyridinyl)-3,6-diazabicyclo[3.2.0]heptane fumarate] as the compound, how does the pKi read?
**A.** 9.77

**Q.** How did the pKi turn out when CN1C[C@H]2CCN(c3ccc(Cl)nc3)[C@H]2C1 (relative stereo) [Example 17, cis-1-(6-chloro-3-pyridinyl)-5-methyloctahydropyrrolo[3,4-b]pyrrole hydrochloride] was run?
**A.** 7.51

**Q.** Oc1cncc(N2C[C@H]3CNC[C@H]3C2)c1 [Example 6, cis-2-(5-hydroxy-3-pyridinyl)octahydropyrrolo[3,4-c]pyrrole dihydrochloride] was tested. Which pKi did it give?
**A.** 9.12

**Q.** N#Cc1cncc(N2CC[C@@H]3CNC[C@@H]32)c1 [Example 81, 5-((3aR,6aR)-hexahydropyrrolo[3,4-b]pyrrol-1(2H)-yl)nicotinonitrile] was tested. Which pKi did it give?
**A.** 7.96

**Q.** c1cncc(N2CC[C@@H]3CCN[C@@H]3C2)c1 (relative stereo) [Example 39, (cis)-6-(3-pyridinyl)octahydro-1H-pyrrolo[2,3-c]pyridine dihydrochloride] was tested. Which pKi did it give?
**A.** 9.27

**Q.** How did the pKi turn out when Clc1ccc(N2CC[C@@H]3CNC[C@@H]32)cn1 [Example 73, (3aR,6aR)-1-(6-chloro-3-pyridinyl)octahydropyrrolo[3,4-b]pyrrole fumarate] was run?
**A.** 7.62

**Q.** With CN1C[C@@H]2CN(c3ccc(Cl)nc3)C[C@@H]2C1 [Example 4, cis-2-(6-chloro-3-pyridinyl)-5-methyloctahydropyrrolo[3,4-c]pyrrole dihydrochloride] as the compound, how does the pKi read?
**A.** 7.44

**Q.** Clc1ccc(N2C[C@H]3NCC[C@H]32)cn1 [Example 19, (1R,5R)-6-(6-chloro-3-pyridinyl)-2,6-diazabicyclo[3.2.0]heptane bis(4-methylbenzenesulfonate)] was tested. Which pKi did it give?
**A.** 6.24

**Q.** With N#Cc1cncc(N2CC[C@H]3CNC[C@H]32)c1 [Example 83, 5-((3aS,6aS)-hexahydropyrrolo[3,4-b]pyrrol-1(2H)-yl)nicotinonitrile fumarate] as the compound, how does the pKi read?
**A.** 7.01

**Q.** With c1cncc(N2CC[C@@H]3CNC[C@@H]32)c1 [Example 75, (3aR,6aR)-1-(3-pyridinyl)octahydropyrrolo[3,4-b]pyrrole fumarate] as the compound, how does the pKi read?
**A.** 8.16

**Q.** Brc1cncc(N2C[C@@H]3CCN[C@@H]3C2)c1 [Example 31, (3aS,6aS)-5-(5-bromo-3-pyridinyl)octahydropyrrolo[3,4-b]pyrrole 4-methylbenzenesulfonate] was tested. Which pKi did it give?
**A.** 7.85

**Q.** Clc1ccc(N2CC[C@H]3CN[C@H]3C2)cn1 (relative stereo) [Example 42, (cis)-3-(6-chloro-3-pyridinyl)-3,8-diazabicyclo[4.2.0]octane bis(4-methylbenzenesulfonate)] was tested. Which pKi did it give?
**A.** 10.52

**Q.** COc1cc(N2C[C@H]3CNC[C@H]32)cnc1Br [Example 95, (1R,5S)-6-(6-bromo-5-methoxy-3-pyridinyl)-3,6-diazabicyclo[3.2.0]heptane 4-methylbenzenesulfonate] was tested. Which pKi did it give?
**A.** 9.92

**Q.** COc1cncc(N2C[C@@H]3CCN[C@@H]3C2)c1 [Example 32, (3aS,6aS)-5-(5-methoxy-3-pyridinyl)octahydropyrrolo[3,4-b]pyrrole 4-methylbenzenesulfonate] was tested. Which pKi did it give?
**A.** 8.28

**Q.** N#Cc1cncc(N2C[C@H]3CCNC[C@H]32)c1 [Example 61, 5-[(1S,6R)-3,8-diazabicyclo[4.2.0]oct-8-yl]nicotinonitrile fumarate] was tested. Which pKi did it give?
**A.** 8.60

Same assay, conditions: [3H]-CYT 1.25 nM, whole rat brain membranes, 60 minutes at 4° C.; IC50 converted to Ki by Cheng and Prusoff correction; read-out: Average Ki

**Q.** Oc1cncc(N2CC[C@H]3CNC[C@H]32)c1 [Example 82, (3aS,6aS)-1-(5-hydroxy-3-pyridinyl)octahydropyrrolo[3,4-b]pyrrole dihydrochloride] was tested. Which pKi did it give?
**A.** 6.44

**Q.** How did the pKi turn out when COc1cncc(N2C[C@H]3CCNC[C@H]32)c1 [Example 88, (1S,6R)-8-(5-methoxy-3-pyridinyl)-3,8-diazabicyclo[4.2.0]octane fumarate] was run?
**A.** 9.25

**Q.** With Cc1cc(N2C[C@H]3CCNC[C@H]32)cnc1Cl [Example 89, (1S,6R)-8-(6-chloro-5-methyl-3-pyridinyl)-3,8-diazabicyclo[4.2.0]octane fumarate] as the compound, how does the pKi read?
**A.** 9.62

**Q.** c1cncc(N2CC[C@H]3NC[C@H]32)c1 [Example 18, (1R,5R)-2-(3-pyridinyl)-2,6-diazabicyclo[3.2.0]heptane bis(4-methylbenzenesulfonate)] was tested. Which pKi did it give?
**A.** 6.81

**Q.** How did the pKi turn out when Clc1cc(N2C[C@H]3CCNC[C@H]32)cnc1Cl [Example 93, (1S,6R)-8-(5,6-dichloro-3-pyridinyl)-3,8-diazabicyclo[4.2.0]octane 4-methylbenzenesulfonate] was run?
**A.** 9.52

**Q.** c1cncc(N2C[C@@H]3CCN[C@@H]3C2)c1 [Example 30, (3aS,6aS)-5-(3-pyridinyl)octahydropyrrolo[3,4-b]pyrrole 4-methylbenzenesulfonate] was tested. Which pKi did it give?
**A.** 8.54

**Q.** Clc1cc(N2C[C@@H]3CCNC[C@@H]32)cnc1Cl [Example 94, (1R,6S)-8-(5,6-dichloro-3-pyridinyl)-3,8-diazabicyclo[4.2.0]octane 4-methylbenzenesulfonate] was tested. Which pKi did it give?
**A.** 9.92

**Q.** c1cncc(N2C[C@H]3NCC[C@H]32)c1 [Example 20, (1R,5R)-6-(3-pyridinyl)-2,6-diazabicyclo[3.2.0]heptane bis(4-methylbenzenesulfonate)] was tested. Which pKi did it give?
**A.** 6.91

**Q.** How did the pKi turn out when c1cncc(N2C[C@@H]3CCNC[C@@H]32)c1 [Example 92, (1R,6S)-8-(3-pyridinyl)-3,8-diazabicyclo[4.2.0]octane 4-methylbenzenesulfonate] was run?
**A.** 9.92

**Q.** c1cncc(N2C[C@H]3CCNC[C@H]32)c1 [Example 91, (1S,6R)-8-(3-pyridinyl)-3,8-diazabicyclo[4.2.0]octane 4-methylbenzenesulfonate] was tested. Which pKi did it give?
**A.** 8.96
